The values that follow come from patent publication US11590116B2 (THERAVANCE BIOPHARMA R&D IP, LLC, priority 2019, dated 2023).

The target in assay [1] is T1, recombinant human ALK5 (TGF-βR1) protein (Homo sapiens, UniProt P36897).
T1 construct: purchased Life Technologies PR9075A
T1 sequence (P36897 34-503): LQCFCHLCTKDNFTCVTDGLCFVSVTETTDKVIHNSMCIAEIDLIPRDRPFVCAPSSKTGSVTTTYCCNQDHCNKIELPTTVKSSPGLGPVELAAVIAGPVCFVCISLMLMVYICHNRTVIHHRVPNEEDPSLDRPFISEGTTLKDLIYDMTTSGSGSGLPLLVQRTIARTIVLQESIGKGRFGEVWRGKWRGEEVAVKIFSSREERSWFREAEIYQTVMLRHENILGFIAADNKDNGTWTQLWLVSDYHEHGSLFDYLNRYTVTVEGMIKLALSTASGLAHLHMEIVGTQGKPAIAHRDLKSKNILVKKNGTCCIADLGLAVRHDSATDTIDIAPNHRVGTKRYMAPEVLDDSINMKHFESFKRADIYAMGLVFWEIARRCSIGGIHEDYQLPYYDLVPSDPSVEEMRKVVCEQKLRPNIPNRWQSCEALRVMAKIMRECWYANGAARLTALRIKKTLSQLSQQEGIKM
Put plainly: Biochemical ALK5 (TGF-βR1) assay to measure pKi (LANCE Ultra ULight kinase assay). Particulars: apparent pKi from pIC50 by Cheng-Prusoff, read-out: ALK5 pKi (converted). The method in brief:
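Compounds (10 μM to 25 pM) preincubated 60 minutes at room temperature with enzyme, then reaction run 60 minutes at 37° C with ATP added as 125 μM (5× final). Stopped with EDTA plus Eu-anti-phospho-Topoisomerase 2-alpha (Thr1342) antibody, TR-FRET read at 665 nm; pIC50 converted to pKi via Cheng-Prusoff.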
A general note: TR-FRET usually uses a lanthanide donor and a delayed reading to cut background.

Assay [2] relates to TGF-β-stimulated SMAD3 phosphorylation in BEAS-2B cells. Description: Cellular ALK5 potency assay, inhibition of TGF-β stimulated pSMAD3 formation in BEAS-2B cells. It counts as cell-based. To be noted: Homo sapiens; inhibition of TGF-β stimulated pSMAD3 formation, BEAS-2B cells; read-out: BEAS2B pIC50 (converted). The procedure:
The potency of compounds of the present disclosure for inhibition of TGF-β-stimulated SMAD3 phosphorylation was measured in BEAS-2B cells, a human lung epithelial cell line. TGF-β signals through activin receptor-like kinase 5 (ALK5) immediately prior to SMAD3 phosphorylation.
BEAS-2B cells were grown using 50% DMEM (Life Technologies) and 50% F-12 (Life Technologies) media, supplemented with 10% Fetal Bovine Serum (ATCC), 25 mM HEPES (Life Technologies), and 1× Pen-Strep (Life Technologies). Cells were cultured in a humidified incubator set at 37° C., 5% CO2, and trypsonized using 0.25% Trypsin with 0.5% polyvinylpyrrolidone (PVP).
For the assay, BEAS-2B cells were seeded at 7,500 cells/well (25 μL/well) in a 384-well plate and cultured overnight. Before dosing, growth media was aspirated and the wells were rinsed with HBSS Buffer (HBSS with Calcium and Magnesium, Life Technologies) supplemented with 25 mM HEPES (Life Technologies) and 1% Bovine Serum Albumin (Roche). Compounds were serially diluted in DMSO, then further diluted with supplemented HBSS Buffer (50 μL/well) to create a compound plate 3× of the final assay concentration, at 0.3% DMSO. The diluted compounds were then added to the cells (8 μL/well) and incubated at 37° C., 5% CO2 for 1 hour. After the compound incubation, TGF-β (R&D Systems) reconstituted in supplemented HBSS Buffer was added to the cells ([…], final concentration 10 ng/mL) and incubated for a further 30 minutes, after which the cells were immediately lysed with AlphaLISA lysis buffer (PerkinElmer). AlphaLISA Acceptor and Detector beads (PerkinElmer) were added 2 hours apart, then incubated overnight to be read the next day. The potency of the compound was determined through analysis of dose-dependent quantified changes in pSMAD3 signal from baseline (non-compound treated TGF-β stimulated cells). Data are expressed as pIC50 (negative decadic logarithm IC50) values.

For the compound `Cc1nc(-c2n[nH]cc2-c2ccc3ncc(-c4cnn(CC5CC(N)C5)c4)cc3n2)ccc1F` (centres unmarked) [Compound 455, 3-[[4-[6-[3-(5-fluoro-6-methyl-2-pyridyl)-1H-pyrazol-4-yl]-1,5-naphthyridin-3-yl]pyrazol-1-yl]methyl]cyclobutanamine], the Ki in assay [1] was 0.0398 to 0.316 nM. The IC50 in assay [2] was 25.1 to 158 nM.
For `Cc1cccc(-c2[nH]ncc2-c2ccc3ncc(C(=O)O[C@H]4CC[C@@](C)(N)CC4)cc3c2)n1` [Compound 1177, (4-amino-4-methyl-cyclohexyl) 6-[5-(6-methyl-2-pyridyl)-1H-pyrazol-4-yl]quinoline-3-carboxylate], in that order: 0.0398 to 0.316 nM and 25.1 to 158 nM.
In the case of `Cc1cccc(-c2n[nH]cc2-c2ccc3ncc(-c4nc(C(N)=O)co4)cc3n2)n1` [Compound 480, 2-[6-[3-(6-methyl-2-pyridyl)-1H-pyrazol-4-yl]-1,5-naphthyridin-3-yl]oxazole-4-carboxamide], the Ki in assay [1] is 0.0398 to 0.316 nM. In assay [2], the IC50 was 25.1 to 158 nM.
For `Cc1cccc(-c2[nH]ncc2-c2ccc3ncc(C(=O)OC4CCC(N)CC4)cc3c2)n1` (centres unmarked) [Compound 1216, (4-aminocyclohexyl) 6-[5-(6-methyl-2-pyridyl)-1H-pyrazol-4-yl]quinoline-3-carboxylate], in that order: 0.0398 to 0.316 nM and < 20 nM.
For `Cc1nc(-c2[nH]cnc2-c2ccc3ncc(-c4cnn(CCN)c4)cc3n2)ccc1F` [Compound 225, 2-[4-[6-[5-(5-fluoro-6-methyl-2-pyridyl)-1H-imidazol-4-yl]-1,5-naphthyridin-3-yl]pyrazol-1-yl]ethanamine], in that order: 0.0398 to 0.316 nM and 25.1 to 158 nM.
On to `Cc1nc(-c2nc3ccccn3c2-c2ccc3ncc(-c4cnn5c4CNCC5)cc3n2)ccc1F` [Compound 89, 2-[2-(5-fluoro-6-methyl-2-pyridyl)imidazo[1,2-a]pyridin-3-yl]-7-(4,5,6,7-tetrahydropyrazolo[1,5-a]pyrazin-3-yl)-1,5-naphthyridine], for which the Ki in assay [1] was 0.0398 to 0.316 nM. Further, the IC50 in assay [2] was 25.1 to 158 nM.
For `Cc1cccc(-c2n[nH]cc2-c2ccc3ncc(-c4nc5c([nH]4)CCNC5)cc3n2)n1` [Compound 134, 2-[3-(6-methyl-2-pyridyl)-1H-pyrazol-4-yl]-7-(4,5,6,7-tetrahydro-1H-imidazo[4,5-c]pyridin-2-yl)-1,5-naphthyridine], in that order: 0.0398 to 0.316 nM and 1580 to 10000 nM.
For `Cc1cccc(-c2[nH]cnc2-c2ccc3ncc(NCCN4CC5(CCNCC5)C4)cc3c2)n1` [Compound 735, N-[2-(2,7-diazaspiro[3.5]nonan-2-yl)ethyl]-6-[5-(6-methyl-2-pyridyl)-1H-imidazol-4-yl]quinolin-3-amine], in that order: 0.0398 to 0.316 nM and 200 to 1260 nM.
For `Cc1cccc(-c2n[nH]cc2-c2ccc3ncc(-c4[nH]nc5c4CCN5)cc3n2)n1` [Compound 393, 2-[3-(6-methyl-2-pyridyl)-1H-pyrazol-4-yl]-7-(2,4,5,6-tetrahydropyrrolo[2,3-c]pyrazol-3-yl)-1,5-naphthyridine], in that order: < 0.0316 nM and 25.1 to 158 nM.
`Cc1cccc(-c2n[nH]cc2-c2ccc3ncc(-c4cnc5n4CCNC5)cc3c2)n1` [Compound 538, 6-[3-(6-methyl-2-pyridyl)-1H-pyrazol-4-yl]-3-(5,6,7,8-tetrahydroimidazo[1,2-a]pyrazin-3-yl)quinoline]: the Ki in assay [1] is 0.398 to 3.16 nM. In addition, the IC50 in assay [2] is 25.1 to 158 nM.
On to `CNCc1cncc(-c2cnc3ccc(-c4c[nH]nc4-c4cccc(C)n4)nc3c2)c1` [Compound 214, N-methyl-1-[5-[6-[3-(6-methyl-2-pyridyl)-1H-pyrazol-4-yl]-1,5-naphthyridin-3-yl]-3-pyridyl]methanamine], for which, in assay [1], the Ki is 0.0398 to 0.316 nM. Moreover, in assay [2], the IC50 was 25.1 to 158 nM.
With `Cc1cccc(-c2n[nH]cc2-c2ccc3ncc(-c4cc[nH]n4)cc3n2)n1` [Compound 612, 2-[3-(6-methyl-2-pyridyl)-1H-pyrazol-4-yl]-7-(1H-pyrazol-3-yl)-1,5-naphthyridine], the Ki in assay [1] was 0.0398 to 0.316 nM. In addition, the IC50 in assay [2] is 25.1 to 158 nM.
For `Cc1cccc(-c2n[nH]cc2-c2ccc3ncc(-c4ncn5c4NCC5)cc3n2)n1` [Compound 445, 7-(2,3-dihydro-1H-imidazo[1,5-a]imidazol-7-yl)-2-[3-(6-methyl-2-pyridyl)-1H-pyrazol-4-yl]-1,5-naphthyridine], in that order: 0.0398 to 0.316 nM and 25.1 to 158 nM.
For `Cc1cccc(-c2[nH]cnc2-c2ccc3ncc(-c4csc(C(=O)OC[C@H]5CCCCN5)c4)cc3c2)n1` [Compound 1207, [(2R)-2-piperidyl]methyl 4-[6-[5-(6-methyl-2-pyridyl)-1H-imidazol-4-yl]-3-quinolyl]thiophene-2-carboxylate], in that order: < 0.0316 nM and 25.1 to 158 nM.
For `Cc1cccc(-c2n[nH]cc2-c2ccc3ncc(N4CCN(Cc5cccnc5)CC4)cc3n2)n1` [Compound 132, 2-[3-(6-methyl-2-pyridyl)-1H-pyrazol-4-yl]-7-[4-(3-pyridylmethyl)piperazin-1-yl]-1,5-naphthyridine], in that order: 0.0398 to 0.316 nM and 25.1 to 158 nM.
In the case of `Cc1cccc(-c2n[nH]cc2-c2ccc3ncc(-c4cn5c(n4)CNCC5)cc3n2)n1` [Compound 75, 2-(3-(6-Methylpyridin-2-yl)-1H-pyrazol-4-yl)-7-(5,6,7,8-tetrahydroimidazo[1,2-a]pyrazin-2-yl)-1,5-naphthyridine], in assay [1], the Ki is < 0.0316 nM. Also, the IC50 in assay [2] was 25.1 to 158 nM.
For `Cc1cccc(-c2n[nH]cc2-c2ccc3ncc(N4C[C@H]5C[C@@H]4CN5C)cc3n2)n1` (racemic) [Compound 437, 2-[3-(6-methyl-2-pyridyl)-1H-pyrazol-4-yl]-7-[rac-(1R,4R)-5-methyl-2,5-diazabicyclo[2.2.1]heptan-2-yl]-1,5-naphthyridine], in that order: 0.398 to 3.16 nM and 25.1 to 158 nM.
For `Cc1cccc(-c2[nH]cnc2-c2ccc3ncc(C4=CCNC4)cc3c2)n1` [Compound 429, 3-(2,5-dihydro-1H-pyrrol-3-yl)-6-[5-(6-methyl-2-pyridyl)-1H-imidazol-4-yl]quinoline], in that order: 0.0398 to 0.316 nM and < 20 nM.
For `Cc1cccc(-c2n[nH]cc2-c2ccc3nccc(CN4CCN(CC(=O)O)CC4)c3n2)n1` [Compound 822, 2-[4-[[6-[3-(6-methyl-2-pyridyl)-1H-pyrazol-4-yl]-1,5-naphthyridin-4-yl]methyl]piperazin-1-yl]acetic acid], in that order: 0.398 to 3.16 nM and 25.1 to 158 nM.
Regarding `Cc1cccc(-c2[nH]cnc2-c2ccc3ncc(-c4csc(C(=O)O[C@H]5CCN(C)C5)c4)cc3c2)n1` [Compound 755, [(3S)-1-methylpyrrolidin-3-yl] 4-[6-[5-(6-methyl-2-pyridyl)-1H-imidazol-4-yl]-3-quinolyl]thiophene-2-carboxylate], the Ki in assay [1] is 0.0398 to 0.316 nM. Besides, in assay [2], the IC50 is < 20 nM.
For `Cc1cccc(-c2n[nH]cc2-c2ccc3ncc(CN4CC(N5CCOCC5)C4)cc3n2)n1` [Compound 495, 4-[1-[[6-[3-(6-methyl-2-pyridyl)-1H-pyrazol-4-yl]-1,5-naphthyridin-3-yl]methyl]azetidin-3-yl]morpholine], in that order: 3.98 to 31.6 nM and 200 to 1260 nM.
For `Cc1cccc(-c2[nH]cnc2-c2ccc3ncc(NCCN(C)C4CCNC4)cc3c2)n1` (racemic) [Compound 537, N′-methyl-N-[6-[5-(6-methyl-2-pyridyl)-1H-imidazol-4-yl]-3-quinolyl]-N′-[rac-(3R)-pyrrolidin-3-yl]ethane-1,2-diamine], in that order: 0.0398 to 0.316 nM and 200 to 1260 nM.
